Reference: publication PMC11167047 (Cell Death Discovery, 2024)

Tests used:
CDK1/cyclin B1 = target: T1, CDK1/cyclin B1 (Homo sapiens, UniProt P06493); assay: luminescence-based kinase activity assay; format: biochemical; details: result in words
T1 construct: purchased BPS Bioscience #79597
Method: (§1) The activity of specific CDKs and their cyclins was assessed using CDK Kits from BPS Bioscience (CDK1/cyclin B1 #79597; CDK2/cyclin A2 #79599; CDK9/cyclin T #79628). The assay was conducted following the manufacturer’s guidelines. In summary, the CDK/cyclin complexes, as purified recombinant enzymes, were allowed to react with CDK substrate peptide, ATP, and kinase buffer in the presence or absence of meriolins. The reaction was initiated by adding diluted CDK/cyclin enzyme to the wells and incubating for 45 min at 30 °C. After the incubation, the Kinase-Glo-Max® reagent was added as a detection reagent, and the resulting luciferase reaction produced luminescence, which was inversely correlated with the kinase activity.
(§2) The luminescent CDK/cyclin assay is a method that quantifies the amount of ATP remaining in the solution after a kinase reaction. Luminescence was measured using the Synergy Mix microplate reader as an endpoint measurement. Data analyses were performed according to the manufacturer’s instructions, and statistical analysis was carried out using one-way ANOVA, with corrections made by Bonferroni’s multiple comparison test. The significance level was indicated as ****p ≤ 0.0001.

CDK2/cyclin A2 = target: T2, CDK2/cyclin A2 (Homo sapiens, UniProt P24941); assay: luminescence-based kinase activity assay; format: biochemical; details: result in words
T2 construct: purchased BPS Bioscience #79599
Method: as §1, §2

CDK9/cyclin T = target: T3, CDK9/cyclin T (Homo sapiens, UniProt P50750); assay: luminescence-based kinase activity assay; format: biochemical; details: result in words
T3 construct: purchased BPS Bioscience #79628
Method: as §1, §2

Ramos cells = assay: cell cycle analysis (Nicoletti assay); format: cell-based, human; details: 24 h, sublethal dose, with QVD
Method: DNA content during cell cycle and hypodiploid apoptotic nuclei were measured by the method of Nicoletti et al.. […] Hypodiploid nuclei were measured in logarithmic mode for apoptosis determination. Flow-cytometry analysis was performed on an LSRFortessa^TM (Becton, Dickinson, Heidelberg, Germany) and data analysis was performed using FlowJo_V10 (BD Biosciences).

CDC7/DBF4 = target: T4, CDC7/DBF4 (Homo sapiens, UniProt O00311); assay: kinome screen (33PanQinase); format: biochemical
T4 construct: purchased Reaction Biology Europe GmbH (formerly ProQinase)
Method: (§3) The Kinome Screening was performed by Reaction Biology Europe GmbH (http://reactionbiology.com; Freiburg i. Br., Germany).

CDK4/CycD1 = target: T5, CDK4/CycD1 (Homo sapiens, UniProt P11802); assay: kinome screen (33PanQinase); format: biochemical
T5 construct: purchased Reaction Biology Europe GmbH (formerly ProQinase)
Method: as §3

IKKα = target: T6, IKKα (Homo sapiens, UniProt O15111); assay: kinome screen (33PanQinase); format: biochemical
T6 construct: purchased Reaction Biology Europe GmbH (formerly ProQinase)
T6 sequence (O15111 1-745): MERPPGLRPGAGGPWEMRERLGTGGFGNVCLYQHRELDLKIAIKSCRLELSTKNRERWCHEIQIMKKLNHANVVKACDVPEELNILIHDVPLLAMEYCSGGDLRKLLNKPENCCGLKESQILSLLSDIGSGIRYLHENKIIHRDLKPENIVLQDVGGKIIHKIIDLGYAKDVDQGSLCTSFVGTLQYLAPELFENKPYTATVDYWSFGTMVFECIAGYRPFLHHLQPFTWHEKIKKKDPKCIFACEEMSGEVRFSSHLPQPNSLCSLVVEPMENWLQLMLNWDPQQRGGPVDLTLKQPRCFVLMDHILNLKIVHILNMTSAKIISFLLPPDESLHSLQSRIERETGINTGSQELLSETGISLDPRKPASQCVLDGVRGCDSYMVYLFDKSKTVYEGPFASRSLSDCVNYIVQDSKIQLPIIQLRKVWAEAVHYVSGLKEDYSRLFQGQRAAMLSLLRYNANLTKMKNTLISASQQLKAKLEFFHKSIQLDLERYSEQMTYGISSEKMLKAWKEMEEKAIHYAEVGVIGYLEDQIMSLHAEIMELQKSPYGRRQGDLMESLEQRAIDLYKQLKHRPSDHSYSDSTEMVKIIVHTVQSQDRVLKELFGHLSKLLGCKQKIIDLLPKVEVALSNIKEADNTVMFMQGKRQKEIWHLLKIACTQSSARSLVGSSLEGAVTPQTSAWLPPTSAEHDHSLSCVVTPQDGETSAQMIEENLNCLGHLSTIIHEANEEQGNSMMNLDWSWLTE
Method: as §3

MEK1 = target: T7, MEK1 (Homo sapiens, UniProt Q02750); assay: kinome screen (33PanQinase); format: biochemical
T7 construct: purchased Reaction Biology Europe GmbH (formerly ProQinase)
Method: as §3

RPS6KA1 = target: T8, RPS6KA1 (Homo sapiens, UniProt Q15418); assay: kinome screen (33PanQinase); format: biochemical
T8 construct: purchased Reaction Biology Europe GmbH (formerly ProQinase)
Method: as §3

TNK1 = target: T9, TNK1 (Homo sapiens, UniProt Q13470); assay: kinome screen (33PanQinase); format: biochemical
T9 construct: purchased Reaction Biology Europe GmbH (formerly ProQinase)
T9 sequence (Q13470 1-666): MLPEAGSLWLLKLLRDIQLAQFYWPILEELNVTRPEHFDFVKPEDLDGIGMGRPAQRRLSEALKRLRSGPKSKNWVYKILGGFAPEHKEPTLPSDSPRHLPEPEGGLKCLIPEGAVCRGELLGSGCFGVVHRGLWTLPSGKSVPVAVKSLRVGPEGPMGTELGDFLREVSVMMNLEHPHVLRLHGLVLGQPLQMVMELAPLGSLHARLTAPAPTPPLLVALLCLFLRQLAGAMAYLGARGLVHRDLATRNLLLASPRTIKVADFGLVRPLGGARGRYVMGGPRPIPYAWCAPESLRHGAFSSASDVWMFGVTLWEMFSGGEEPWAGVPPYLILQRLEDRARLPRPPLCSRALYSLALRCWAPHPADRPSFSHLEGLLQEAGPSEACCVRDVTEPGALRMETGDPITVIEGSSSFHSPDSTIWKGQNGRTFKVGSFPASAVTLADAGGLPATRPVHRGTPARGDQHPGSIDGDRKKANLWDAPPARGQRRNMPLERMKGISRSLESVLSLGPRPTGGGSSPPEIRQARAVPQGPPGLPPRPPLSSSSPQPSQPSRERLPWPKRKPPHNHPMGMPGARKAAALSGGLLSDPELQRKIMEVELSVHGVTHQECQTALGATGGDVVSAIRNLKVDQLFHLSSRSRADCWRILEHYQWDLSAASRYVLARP
Method: as §3

WNK3 = target: T10, WNK3 (Homo sapiens, UniProt Q9BYP7); assay: kinome screen (33PanQinase); format: biochemical
T10 construct: purchased Reaction Biology Europe GmbH (formerly ProQinase)
Method: as §3

MOLT4 = details: read-out: IC50 (MOLT4); cytotoxicity, 24 h
Method: (§4) The resazurin reduction assay, which is also known as AlamarBlue® assay, was used for the determination of cell viability in all cytotoxicity determinations shown in the present work, as previously described [22]. Briefly, cells were seeded at a specific density depending on the incubation time (24 h: 1 × 10^6 cells/ml) in a 96-well plate and incubated with increasing compound concentrations (0.01–30 µM). After the specified treatment time, resazurin (Sigma, #R7017) was added to a final concentration of 40 µM. […] The viability of control cells was set to 100% and all other values were normalized to the control condition, the dose-response curves were then fitted with Prism v7.01 (GraphPad software, La Jolla, CA, USA). The reduction of resazurin to resorufin is proportional to aerobic respiration; therefore, it is used as a measure for the cell viability and cytotoxicity of a tested compound.

[1] = test system: FL303 follicular lymphoma cells; details: read-out: IC50 (FL303); primary patient cells, 24 h
Excerpt: For chronic lymphocytic leukemia, mononuclear cells were isolated from peripheral blood using a Ficoll gradient (GE Healthcare). Primary cells from other lymphoma entities were isolated as previously described [80]. All cells were cryopreserved after isolation and thawed as previously described [81].
as §4

T10 sequence (Q9BYP7 whole entry): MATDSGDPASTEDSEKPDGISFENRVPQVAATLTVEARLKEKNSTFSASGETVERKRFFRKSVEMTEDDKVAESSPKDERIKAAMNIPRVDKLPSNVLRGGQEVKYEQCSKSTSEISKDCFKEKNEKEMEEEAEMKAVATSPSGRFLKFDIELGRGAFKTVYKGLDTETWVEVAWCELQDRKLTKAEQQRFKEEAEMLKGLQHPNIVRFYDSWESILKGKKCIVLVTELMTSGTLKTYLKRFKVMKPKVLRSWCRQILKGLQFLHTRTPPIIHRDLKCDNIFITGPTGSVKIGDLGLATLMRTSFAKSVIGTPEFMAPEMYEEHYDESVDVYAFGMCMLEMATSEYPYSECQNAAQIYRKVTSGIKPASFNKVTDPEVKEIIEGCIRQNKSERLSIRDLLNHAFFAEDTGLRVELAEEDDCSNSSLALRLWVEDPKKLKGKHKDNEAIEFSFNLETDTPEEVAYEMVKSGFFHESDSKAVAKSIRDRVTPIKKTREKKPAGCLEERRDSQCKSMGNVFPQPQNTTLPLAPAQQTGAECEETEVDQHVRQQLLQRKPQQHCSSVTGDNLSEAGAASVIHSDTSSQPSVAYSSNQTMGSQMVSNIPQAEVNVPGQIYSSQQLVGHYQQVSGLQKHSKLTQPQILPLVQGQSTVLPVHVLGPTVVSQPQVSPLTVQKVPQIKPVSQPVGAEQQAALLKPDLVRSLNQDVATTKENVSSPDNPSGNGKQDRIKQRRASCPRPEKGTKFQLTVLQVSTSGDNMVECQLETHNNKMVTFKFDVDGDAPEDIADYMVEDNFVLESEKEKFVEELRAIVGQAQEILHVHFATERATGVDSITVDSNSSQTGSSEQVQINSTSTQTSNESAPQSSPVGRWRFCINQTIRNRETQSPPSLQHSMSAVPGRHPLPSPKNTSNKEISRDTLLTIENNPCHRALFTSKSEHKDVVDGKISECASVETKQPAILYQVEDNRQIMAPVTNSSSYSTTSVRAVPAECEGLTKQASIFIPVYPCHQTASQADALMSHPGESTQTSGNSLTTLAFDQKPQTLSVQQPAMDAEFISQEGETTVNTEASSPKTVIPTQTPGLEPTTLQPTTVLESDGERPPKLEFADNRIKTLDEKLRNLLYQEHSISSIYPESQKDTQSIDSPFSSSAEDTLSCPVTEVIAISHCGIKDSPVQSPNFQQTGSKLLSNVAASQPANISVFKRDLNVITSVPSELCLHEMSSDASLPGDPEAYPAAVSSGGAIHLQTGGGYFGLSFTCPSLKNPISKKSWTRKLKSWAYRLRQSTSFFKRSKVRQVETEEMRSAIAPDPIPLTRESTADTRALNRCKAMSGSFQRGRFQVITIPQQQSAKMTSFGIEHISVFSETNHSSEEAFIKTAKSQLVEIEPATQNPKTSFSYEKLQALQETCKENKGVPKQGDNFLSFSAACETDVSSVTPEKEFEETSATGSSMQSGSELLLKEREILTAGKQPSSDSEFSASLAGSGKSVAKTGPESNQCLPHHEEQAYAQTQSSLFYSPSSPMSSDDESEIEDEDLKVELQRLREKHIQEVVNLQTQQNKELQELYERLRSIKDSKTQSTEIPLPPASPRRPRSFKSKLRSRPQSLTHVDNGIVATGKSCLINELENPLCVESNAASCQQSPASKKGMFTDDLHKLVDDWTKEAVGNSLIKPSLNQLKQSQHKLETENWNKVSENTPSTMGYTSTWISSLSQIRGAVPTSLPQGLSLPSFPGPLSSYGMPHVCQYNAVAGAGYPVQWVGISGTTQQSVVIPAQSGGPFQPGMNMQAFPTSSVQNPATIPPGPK
T4 sequence (O00311 whole entry): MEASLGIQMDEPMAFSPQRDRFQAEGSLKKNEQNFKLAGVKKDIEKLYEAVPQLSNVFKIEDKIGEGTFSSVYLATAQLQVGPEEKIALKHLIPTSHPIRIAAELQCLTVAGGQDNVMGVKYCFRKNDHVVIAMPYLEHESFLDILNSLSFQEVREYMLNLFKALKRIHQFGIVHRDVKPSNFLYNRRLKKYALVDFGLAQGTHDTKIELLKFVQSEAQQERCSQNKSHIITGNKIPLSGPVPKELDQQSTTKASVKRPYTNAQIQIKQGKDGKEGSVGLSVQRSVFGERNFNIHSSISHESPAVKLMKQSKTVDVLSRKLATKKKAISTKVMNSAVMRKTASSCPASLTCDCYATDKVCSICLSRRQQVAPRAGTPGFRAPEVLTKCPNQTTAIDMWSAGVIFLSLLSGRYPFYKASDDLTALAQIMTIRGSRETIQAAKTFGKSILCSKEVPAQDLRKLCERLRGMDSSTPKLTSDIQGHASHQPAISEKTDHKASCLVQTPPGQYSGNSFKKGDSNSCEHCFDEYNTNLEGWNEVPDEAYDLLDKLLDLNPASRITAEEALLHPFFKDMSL
T4 sequence (Q9UBU7 whole entry partner): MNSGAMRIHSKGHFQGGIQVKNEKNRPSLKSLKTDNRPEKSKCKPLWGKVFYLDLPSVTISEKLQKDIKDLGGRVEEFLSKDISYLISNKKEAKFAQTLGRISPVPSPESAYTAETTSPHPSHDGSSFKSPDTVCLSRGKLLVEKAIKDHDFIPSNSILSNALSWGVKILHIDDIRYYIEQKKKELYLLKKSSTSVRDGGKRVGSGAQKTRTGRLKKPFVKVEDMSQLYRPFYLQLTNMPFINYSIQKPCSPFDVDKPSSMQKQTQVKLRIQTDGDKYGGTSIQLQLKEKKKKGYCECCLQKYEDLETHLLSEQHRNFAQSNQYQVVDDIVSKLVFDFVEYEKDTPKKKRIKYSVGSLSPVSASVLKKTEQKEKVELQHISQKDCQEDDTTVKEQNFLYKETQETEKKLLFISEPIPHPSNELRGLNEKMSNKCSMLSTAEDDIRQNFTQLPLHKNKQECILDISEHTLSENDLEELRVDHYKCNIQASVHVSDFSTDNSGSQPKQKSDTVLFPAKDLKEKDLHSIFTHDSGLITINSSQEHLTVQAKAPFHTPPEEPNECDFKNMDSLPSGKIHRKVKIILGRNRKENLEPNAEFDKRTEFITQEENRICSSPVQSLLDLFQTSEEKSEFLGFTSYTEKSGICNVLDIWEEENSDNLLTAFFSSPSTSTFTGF
T7 sequence (Q02750 whole entry): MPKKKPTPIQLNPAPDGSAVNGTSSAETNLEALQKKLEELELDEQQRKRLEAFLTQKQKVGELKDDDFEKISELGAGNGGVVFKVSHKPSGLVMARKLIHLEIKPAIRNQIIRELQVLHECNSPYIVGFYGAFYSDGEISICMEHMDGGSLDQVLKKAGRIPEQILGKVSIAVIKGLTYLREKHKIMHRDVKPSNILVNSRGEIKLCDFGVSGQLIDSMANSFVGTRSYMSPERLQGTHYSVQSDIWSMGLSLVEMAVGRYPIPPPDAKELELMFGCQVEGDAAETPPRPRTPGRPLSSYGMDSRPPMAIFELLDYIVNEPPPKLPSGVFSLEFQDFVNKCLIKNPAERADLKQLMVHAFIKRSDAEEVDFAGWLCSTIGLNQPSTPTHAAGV
T8 sequence (Q15418 whole entry): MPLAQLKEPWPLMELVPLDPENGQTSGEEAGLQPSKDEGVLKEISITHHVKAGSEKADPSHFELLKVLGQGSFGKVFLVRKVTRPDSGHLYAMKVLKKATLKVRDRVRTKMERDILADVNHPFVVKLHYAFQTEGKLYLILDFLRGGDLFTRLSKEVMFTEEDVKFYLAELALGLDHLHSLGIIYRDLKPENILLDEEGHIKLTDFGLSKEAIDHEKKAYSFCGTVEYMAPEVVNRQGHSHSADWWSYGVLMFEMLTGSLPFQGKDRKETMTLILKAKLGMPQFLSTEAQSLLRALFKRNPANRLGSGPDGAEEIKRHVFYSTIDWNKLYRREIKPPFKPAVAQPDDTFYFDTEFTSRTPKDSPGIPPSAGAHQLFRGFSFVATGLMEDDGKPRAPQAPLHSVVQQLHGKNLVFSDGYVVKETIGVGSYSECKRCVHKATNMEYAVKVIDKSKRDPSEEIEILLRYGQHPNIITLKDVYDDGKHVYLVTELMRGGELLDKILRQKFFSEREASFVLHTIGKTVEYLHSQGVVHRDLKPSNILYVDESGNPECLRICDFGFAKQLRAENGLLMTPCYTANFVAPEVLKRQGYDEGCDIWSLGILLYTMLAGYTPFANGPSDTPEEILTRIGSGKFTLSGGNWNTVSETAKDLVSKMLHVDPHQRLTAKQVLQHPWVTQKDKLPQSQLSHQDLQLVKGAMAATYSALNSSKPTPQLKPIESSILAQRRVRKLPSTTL
T5 sequence (P11802 whole entry): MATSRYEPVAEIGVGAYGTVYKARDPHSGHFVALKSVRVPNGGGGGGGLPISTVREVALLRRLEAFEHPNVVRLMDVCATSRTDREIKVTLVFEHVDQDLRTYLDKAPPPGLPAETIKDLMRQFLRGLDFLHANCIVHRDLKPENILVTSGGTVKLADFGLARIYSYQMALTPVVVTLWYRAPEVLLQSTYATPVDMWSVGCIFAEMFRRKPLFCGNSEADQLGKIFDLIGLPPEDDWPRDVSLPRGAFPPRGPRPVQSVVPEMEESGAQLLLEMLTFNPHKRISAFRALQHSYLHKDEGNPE
T5 sequence (P24385 whole entry partner): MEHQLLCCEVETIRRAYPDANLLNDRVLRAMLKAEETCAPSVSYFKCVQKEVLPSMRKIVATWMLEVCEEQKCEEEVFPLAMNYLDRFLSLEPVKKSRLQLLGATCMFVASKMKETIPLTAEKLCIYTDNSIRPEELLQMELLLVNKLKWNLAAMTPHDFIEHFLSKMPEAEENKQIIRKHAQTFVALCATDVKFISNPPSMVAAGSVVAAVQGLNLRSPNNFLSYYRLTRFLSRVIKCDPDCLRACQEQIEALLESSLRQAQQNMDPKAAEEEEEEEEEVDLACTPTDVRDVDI

Compound: c1ccc(CNc2cc(-c3c[nH]c4ncccc34)ccn2)cc1 [meriolin 36]
- inhibition of CDK1/cyclin B1 (CDK1/cyclin B1): inhibited
- inhibition of CDK2/cyclin A2 (CDK2/cyclin A2): inhibited
- inhibition of CDK9/cyclin T (CDK9/cyclin T): inhibited
- effect on cell cycle phases (Ramos cells): only a slight shift to G2 phase
- residual kinase activity (CDC7/DBF4; 0.3 µM): 10 % of control
- residual kinase activity (CDC7/DBF4; 3 µM): 2 % of control
- residual kinase activity (CDK4/CycD1; 0.3 µM): 24 % of control
- residual kinase activity (CDK4/CycD1; 3 µM): 4 % of control
- residual kinase activity (IKKα; 0.3 µM): 37 % of control
- residual kinase activity (IKKα; 3 µM): 13 % of control
- residual kinase activity (MEK1; 0.3 µM): 35 % of control
- residual kinase activity (MEK1; 3 µM): 6 % of control
- residual kinase activity (RPS6KA1; 0.3 µM): 20 % of control
- residual kinase activity (RPS6KA1; 3 µM): 10 % of control
- residual kinase activity (TNK1; 0.3 µM): 29 % of control
- residual kinase activity (TNK1; 3 µM): 9 % of control
- residual kinase activity (WNK3; 0.3 µM): 106 % of control
- residual kinase activity (WNK3; 3 µM): 104 % of control
- IC50 (MOLT4): 3480 nM
- IC50 [1]: 170 nM

Compound: COc1ccnc2[nH]cc(-c3cc(N)nc(N)c3)c12 [meriolin 16]
- inhibition of CDK1/cyclin B1 (CDK1/cyclin B1): inhibited
- inhibition of CDK2/cyclin A2 (CDK2/cyclin A2): inhibited
- inhibition of CDK9/cyclin T (CDK9/cyclin T): inhibited
- effect on cell cycle phases (Ramos cells): only a slight shift to G2 phase
- residual kinase activity (CDC7/DBF4; 0.03 µM): 63 % of control
- residual kinase activity (CDC7/DBF4; 0.3 µM): 12 % of control
- residual kinase activity (CDK4/CycD1; 0.03 µM): 86 % of control
- residual kinase activity (CDK4/CycD1; 0.3 µM): 36 % of control
- residual kinase activity (IKKα; 0.03 µM): 27 % of control
- residual kinase activity (IKKα; 0.3 µM): 16 % of control
- residual kinase activity (MEK1; 0.03 µM): 108 % of control
- residual kinase activity (MEK1; 0.3 µM): 102 % of control
- residual kinase activity (RPS6KA1; 0.03 µM): 46 % of control
- residual kinase activity (RPS6KA1; 0.3 µM): 22 % of control
- residual kinase activity (TNK1; 0.03 µM): 82 % of control
- residual kinase activity (TNK1; 0.3 µM): 39 % of control
- residual kinase activity (WNK3; 0.03 µM): 85 % of control
- residual kinase activity (WNK3; 0.3 µM): 85 % of control
- IC50 (MOLT4): 20 nM
- IC50 [1]: 60 nM
